Legend:
[1] = test system: Acinetobacter baumannii NT5-1 – tet(X5); test: microbe, parasite or virus in culture; type: cell-based
[2] = test system: Escherichia coli T-24a – tet(X4); test: microbe, parasite or virus in culture; type: cell-based
[3] = test system: Proteus penneri NT6-2 – tet(X6); test: microbe, parasite or virus in culture; type: cell-based
Tet(X4) = Tet(X4) (Escherichia coli, UniProt A0A3T0V9Y5); test: FP competitive displacement of probe 6; type: binding; conditions: IC50app, Tet(X4) (Polarization), 25 nM 6, 40 nM Tet(X4), 5 mM MgCl2, 1 μM FAD, 100 mM Tris pH 7.0, 0.01% Triton X-100
In short: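 FP displacement of probe 6 (added as 50 nM solution) from Tet(X4) (2× mix: 80 nM enzyme, 2 μM FAD, 10 mM MgCl2), 30 min at ambient temperature. Dose-response used 3-fold, 10-point DMSO series (top 5 or 0.5 mM stock). IC50^app came from a Hill fit of control-normalised response. Library screening used 10 μM compound, 0.1% DMSO, […].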

[4] = test system: E. coli TOP10 containing plasmid pBAD-TOPO-Tet(X4); test: Broth microdilution MIC and checkerboard assay; type: cell-based, Escherichia coli; conditions: for Tet(X) inhibitor MIC: alone, induced with 0.2%w/v L-arabinose; for Combination (antibiotic/inhibitor) MIC: inhibitor: inhibitor in combination with tigecycline; for Combination (antibiotic/inhibitor) MIC: inhibitor / Combination (antibiotic/inhibitor) MIC: antibiotic: lowest FICI; for Combination (antibiotic/inhibitor) MIC: antibiotic: tigecycline in combination with the inhibitor; for FICI / Outcome: with tigecycline
In short: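 E. coli TOP10 with pBAD-TOPO-Tet(X4), […], tested by CLSI broth microdilution in CAMHB, ~1.5 × 10^6 cfu mL^−1 inoculum, 37 °C, 18 h. Checkerboard of seven 2-fold inhibitor dilutions × ten dilutions; growth read visually ± resazurin; FICI = FICA + FICB.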

[5] = inhibitor in combination with tigecycline, lowest FICI
[6] = tigecycline in combination with the inhibitor, lowest FICI

**Q.** With `CN1CCN(CCCN2c3ccccc3Sc3ccc(C(F)(F)F)cc32)CC1` [Trifluoperazine] as the molecule, how does the MIC ([1]; Acinetobacter baumannii, read-out: Tet(X) Inhibitor MIC) read?
**A.** The MIC was 128 mg/L.

**Q.** And the “Combination (Antibiotic/Inhibitor) MICs: inhibitor” value [1, 5]?
**A.** Its value is 64 µg/mL.

**Q.** And the “Combination (Antibiotic/Inhibitor) MICs: antibiotic” value [1, 6]?
**A.** Its value is 1 µg/mL.

**Q.** What about the FICI ([1]; with tigecycline) of the same molecule?
**A.** The FICI was 0.6.

**Q.** What about the Outcome ([1]; with tigecycline) of the same molecule?
**A.** Its Outcome is “indifferent (indifferent (0.5-4.0))”.

**Q.** What about the MIC ([2]; Escherichia coli, read-out: Tet(X) Inhibitor MIC, alone, E. coli T-24a) of the same molecule?
**A.** The MIC was 256 mg/L.

**Q.** And the “Combination (Antibiotic/Inhibitor) MICs: inhibitor” value [2, 5]?
**A.** Its value is 32 µg/mL.

**Q.** What about the “Combination (Antibiotic/Inhibitor) MICs: antibiotic” value [2, 6] of the same molecule?
**A.** Its value is 8 µg/mL.

**Q.** And the FICI ([2]; with tigecycline)?
**A.** Its FICI is 0.6.

**Q.** And the Outcome ([2]; with tigecycline)?
**A.** The Outcome was “indifferent (indifferent (0.5-4.0))”.

**Q.** And the MIC ([3]; Proteus penneri, read-out: Tet(X) Inhibitor MIC)?
**A.** The MIC was greater than 128 mg/L.

**Q.** What about the “Combination (Antibiotic/Inhibitor) MICs: inhibitor” value [3, 5] of the same molecule?
**A.** Its value is 128 µg/mL.

**Q.** What about the “Combination (Antibiotic/Inhibitor) MICs: antibiotic” value [3, 6] of the same molecule?
**A.** Its value is 4 µg/mL.

**Q.** What about the FICI ([3]; with tigecycline) of the same molecule?
**A.** The FICI was 1.5.

**Q.** What about the Outcome ([3]; with tigecycline) of the same molecule?
**A.** Its Outcome is “indifferent (indifferent (0.5-4.0))”.

**Q.** And the IC50 (Tet(X4))?
**A.** Its IC50 is 55.6 ± 14.2 µM.

**Q.** And the MIC ([4]; Escherichia coli, read-out: Tet(X) Inhibitor MIC, alone, without L-arabinose induction)?
**A.** The MIC was 64 mg/L.

**Q.** And the “Tet(X) inhibitor MIC” value [4]?
**A.** The value was 64 mg/L.

**Q.** And the “Tet(X) inhibitor MIC” value ([4]; listed as trifluoperazine)?
**A.** Its value is 16 to 64 mg/L.

**Q.** What about the “reduction of the tigecycline MIC” value ([4]; at high concentrations of inhibitor, 0.2%w/v L-arabinose) of the same molecule?
**A.** Its value is 2–4 fold.

**Q.** And the “Combination (antibiotic/inhibitor) MIC: inhibitor” value ([4]; 0.2%w/v L-arabinose)?
**A.** The value was 8 mg/L.

**Q.** What about the “Combination (antibiotic/inhibitor) MIC: inhibitor” value ([4]; without L-arabinose) of the same molecule?
**A.** The value was 32 mg/L.

**Q.** What about the “Combination (antibiotic/inhibitor) MIC: antibiotic” value ([4]; 0.2%w/v L-arabinose) of the same molecule?
**A.** The value was 2 mg/L.

**Q.** And the “Combination (antibiotic/inhibitor) MIC: antibiotic” value ([4]; without L-arabinose)?
**A.** Its value is 0.13 mg/L.

**Q.** What about the FICI ([4]; 0.2%w/v L-arabinose) of the same molecule?
**A.** The FICI was 0.6.

**Q.** What about the Outcome ([4]; 0.2%w/v L-arabinose) of the same molecule?
**A.** Its Outcome is “Indifferent (indifferent (0.5–4.0))”.

**Q.** And the FICI ([4]; 0.2%w/v L-arabinose, listed as trifluoperazine)?
**A.** The FICI was 0.5-1.

**Q.** What about the FICI ([4]; without L-arabinose) of the same molecule?
**A.** Its FICI is 1.

**Q.** And the Outcome ([4]; without L-arabinose)?
**A.** The Outcome was “indifferent (indifferent (0.5-4.0))”.

Reference: article PMC12056667 (Chemical Science, 2025)
